Measurements from article PMC10698726 (Molecular Pharmaceutics, 2023).

B1: OCT1 (Homo sapiens) (protein)
chain: MPTVDDILEQVGESGWFQKQAFLILCLLSAAFAPICVGIVFLGFTPDHHCQSPGVAELSQRCGWSPAEELNYTVPGLGPAGEAFLGQCRRYEVDWNQSALSCVDPLASLATNRSHLPLGPCQDGWVYDTPGSSIVTEFNLVCADSWKLDLFQSCLNAGFLFGSLGVGYFADRFGRKLCLLGTVLVNAVSGVLMAFSPNYMSMLLFRLLQGLVSKGNWMAGYTLITEFVGSGSRRTVAIMYQMAFTVGLVALTGLAYALPHWRWLQLAVSLPTFLFLLYYWCVPESPRWLLSQKRNTEAIKIMDHIAQKNGKLPPADLKMLSLEEDVTEKLSPSFADLFRTPRLRKRTFILMYLWFTDSVLYQGLILHMGATSGNLYLDFLYSALVEIPGAFIALITIDRVGRIYPMAMSNLLAGAACLVMIFISPDLHWLNIIIMCVGRMGITIAIQMICLVNAELYPTFVRNLGVMVCSSLCDIGGIITPFIVFRLREVWQALPLILFAVLGLLAAGVTLLLPETKGVALPETMKDAENLGRKAKPKENTIYLKVQTSEPSGT

Assays:
OCT1 = system: OCT1; design: method as in PMID 34884800; details: cited from earlier work
OCT2 = system: OCT2; design: method as in PMID 34884800; details: cited from earlier work
[1] = substrate: CCC(CO)NCCNC(CC)CO; test: cells, lysate or membranes named; details: other: OCT1, 2 min uptake, this study

Molecule | difference in the inhibition of OCT1 between enantiomers (OCT1) | difference in the inhibition of OCT2 between enantiomers (OCT2) | Km [1] [µM] | Vmax [1] [µmol/min/mg]
CCCC(C(=O)c1ccccc1)N1CCCC1 (stereo not drawn) [α-pyrrolidinovalerophenone] | twofold difference | no difference |  | 
B1 |  |  | 167 | 0.00235
